Measurements: ChEMBL document CHEMBL4507311, “Data for DCP probe A-1155463” (2021)

What was measured:
[1] = molecular target: Calcium/calmodulin-dependent protein kinase type II subunit gamma (Homo sapiens) (UniProt Q13555); conditions: Compound concentration 1000.0 nM
[2] = molecular target: SRSF protein kinase 1 (Homo sapiens) (UniProt Q96SB4); conditions: Compound concentration 1000.0 nM
[3] = molecular target: Serine/threonine-protein kinase 25 (Homo sapiens) (UniProt O00506); conditions: Compound concentration 1000.0 nM
[4] = molecular target: Cyclin-dependent kinase 13 (Homo sapiens) (UniProt Q14004); conditions: Compound concentration 1000.0 nM
[5] = molecular target: 5-hydroxytryptamine receptor 1E (Homo sapiens) (UniProt P28566); conditions: Compound concentration 10.0 uM
[6] = molecular target: T1, Muscarinic acetylcholine receptor M2 (Homo sapiens) (UniProt P08172); conditions: Compound concentration 10.0 uM
T1 sequence (whole entry): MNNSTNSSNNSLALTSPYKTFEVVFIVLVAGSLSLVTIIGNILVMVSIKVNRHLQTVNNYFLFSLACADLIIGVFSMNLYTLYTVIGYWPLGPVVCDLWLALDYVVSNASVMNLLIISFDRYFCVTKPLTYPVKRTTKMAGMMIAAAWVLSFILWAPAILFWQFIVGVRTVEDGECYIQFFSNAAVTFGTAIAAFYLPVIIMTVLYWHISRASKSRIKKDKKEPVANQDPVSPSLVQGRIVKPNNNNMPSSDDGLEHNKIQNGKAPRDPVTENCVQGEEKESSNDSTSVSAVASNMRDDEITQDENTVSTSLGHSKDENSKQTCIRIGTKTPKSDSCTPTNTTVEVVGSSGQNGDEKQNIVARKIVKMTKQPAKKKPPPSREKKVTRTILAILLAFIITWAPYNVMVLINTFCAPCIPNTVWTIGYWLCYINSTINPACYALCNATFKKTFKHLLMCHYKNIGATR

[7] = molecular target: Rho-associated protein kinase 2 (Homo sapiens) (UniProt O75116); conditions: Compound concentration 1000.0 nM
[8] = molecular target: Ephrin type-A receptor 3 (Homo sapiens) (UniProt P29320); conditions: Compound concentration 1000.0 nM
[9] = molecular target: Mitogen-activated protein kinase kinase kinase kinase 5 (Homo sapiens) (UniProt Q9Y4K4); conditions: Compound concentration 1000.0 nM
[10] = molecular target: D(3) dopamine receptor (Homo sapiens) (UniProt P35462); conditions: Compound concentration 10.0 uM
[11] = molecular target: Serine/threonine-protein kinase Chk2 (Homo sapiens) (UniProt O96017); conditions: Compound concentration 1000.0 nM
[12] = molecular target: Glycogen synthase kinase-3 alpha (Homo sapiens) (UniProt P49840); conditions: Compound concentration 1000.0 nM
[13] = molecular target: Fibroblast growth factor receptor 3 (Homo sapiens) (UniProt P22607); conditions: Compound concentration 1000.0 nM
[14] = molecular target: Serine/threonine-protein kinase Nek6 (Homo sapiens) (UniProt Q9HC98); conditions: Compound concentration 1000.0 nM
[15] = molecular target: Serine/threonine-protein kinase 17B (Homo sapiens) (UniProt O94768); conditions: Compound concentration 1000.0 nM
[16] = molecular target: Serine/threonine-protein kinase Sgk2 (Homo sapiens) (UniProt Q9HBY8); conditions: Compound concentration 1000.0 nM
[17] = molecular target: Protein-tyrosine kinase 6 (Homo sapiens) (UniProt Q13882); conditions: Compound concentration 1000.0 nM
[18] = system: Epidermal growth factor receptor (Homo sapiens), P00533 [T790M]; conditions: Compound concentration 1000.0 nM
[19] = molecular target: Cyclin-dependent kinase-like 1 (Homo sapiens) (UniProt Q00532); conditions: Compound concentration 1000.0 nM
[20] = molecular target: BMP-2-inducible protein kinase (Homo sapiens) (UniProt Q9NSY1); conditions: Compound concentration 1000.0 nM
Histamine H3 receptor = Histamine H3 receptor (Homo sapiens, UniProt Q9Y5N1); test: GPCRScan assay: inhibition of H3; design: radioligand conc. used [nm] 0.5 – 1.0, parental cells HEK Flp-In
[21] = molecular target: Protein kinase C iota type (Homo sapiens) (UniProt P41743); conditions: Compound concentration 1000.0 nM
[22] = molecular target: Membrane-associated tyrosine- and threonine-specific cdc2-inhibitory kinase (Homo sapiens) (UniProt Q99640); conditions: Compound concentration 1000.0 nM
[23] = molecular target: Calcium/calmodulin-dependent protein kinase type II subunit beta (Homo sapiens) (UniProt Q13554); conditions: Compound concentration 1000.0 nM
[24] = molecular target: Vascular endothelial growth factor receptor 1 (Homo sapiens) (UniProt P17948); conditions: Compound concentration 1000.0 nM
[25] = system: Hepatocyte growth factor receptor (Homo sapiens), P08581 [M1250T]; conditions: Compound concentration 1000.0 nM
[26] = molecular target: Ribosomal protein S6 kinase alpha-6 (Homo sapiens) (UniProt Q9UK32); conditions: Compound concentration 1000.0 nM
[27] = molecular target: Mitogen-activated protein kinase 11 (Homo sapiens) (UniProt Q15759); conditions: Compound concentration 1000.0 nM
[28] = molecular target: Receptor tyrosine-protein kinase erbB-2 (Homo sapiens) (UniProt P04626); conditions: Compound concentration 1000.0 nM
[29] = molecular target: T2, Alpha-2A adrenergic receptor (Homo sapiens) (UniProt P08913); conditions: Compound concentration 10.0 uM
T2 sequence (whole entry): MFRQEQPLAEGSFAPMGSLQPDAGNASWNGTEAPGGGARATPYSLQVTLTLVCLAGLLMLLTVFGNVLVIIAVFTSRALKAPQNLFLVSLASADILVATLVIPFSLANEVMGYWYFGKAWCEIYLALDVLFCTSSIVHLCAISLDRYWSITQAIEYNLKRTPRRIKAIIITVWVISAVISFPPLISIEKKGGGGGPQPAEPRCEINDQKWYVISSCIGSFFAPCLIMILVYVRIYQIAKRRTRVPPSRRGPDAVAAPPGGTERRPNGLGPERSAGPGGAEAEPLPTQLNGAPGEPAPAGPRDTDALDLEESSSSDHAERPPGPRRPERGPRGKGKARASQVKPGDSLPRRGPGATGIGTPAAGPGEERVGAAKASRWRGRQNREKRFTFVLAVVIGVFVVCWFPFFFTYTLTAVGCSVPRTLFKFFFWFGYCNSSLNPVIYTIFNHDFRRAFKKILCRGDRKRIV

[30] = molecular target: Death-associated protein kinase 3 (Homo sapiens) (UniProt O43293); conditions: Compound concentration 1000.0 nM
[31] = molecular target: Mitogen-activated protein kinase kinase kinase 4 (Homo sapiens) (UniProt Q9Y6R4); conditions: Compound concentration 1000.0 nM
[32] = system: Receptor-type tyrosine-protein kinase FLT3 (Homo sapiens), P36888 [R834Q]; conditions: Compound concentration 1000.0 nM

Chain of Receptor tyrosine-protein kinase erbB-2 (Homo sapiens) (P04626 whole entry): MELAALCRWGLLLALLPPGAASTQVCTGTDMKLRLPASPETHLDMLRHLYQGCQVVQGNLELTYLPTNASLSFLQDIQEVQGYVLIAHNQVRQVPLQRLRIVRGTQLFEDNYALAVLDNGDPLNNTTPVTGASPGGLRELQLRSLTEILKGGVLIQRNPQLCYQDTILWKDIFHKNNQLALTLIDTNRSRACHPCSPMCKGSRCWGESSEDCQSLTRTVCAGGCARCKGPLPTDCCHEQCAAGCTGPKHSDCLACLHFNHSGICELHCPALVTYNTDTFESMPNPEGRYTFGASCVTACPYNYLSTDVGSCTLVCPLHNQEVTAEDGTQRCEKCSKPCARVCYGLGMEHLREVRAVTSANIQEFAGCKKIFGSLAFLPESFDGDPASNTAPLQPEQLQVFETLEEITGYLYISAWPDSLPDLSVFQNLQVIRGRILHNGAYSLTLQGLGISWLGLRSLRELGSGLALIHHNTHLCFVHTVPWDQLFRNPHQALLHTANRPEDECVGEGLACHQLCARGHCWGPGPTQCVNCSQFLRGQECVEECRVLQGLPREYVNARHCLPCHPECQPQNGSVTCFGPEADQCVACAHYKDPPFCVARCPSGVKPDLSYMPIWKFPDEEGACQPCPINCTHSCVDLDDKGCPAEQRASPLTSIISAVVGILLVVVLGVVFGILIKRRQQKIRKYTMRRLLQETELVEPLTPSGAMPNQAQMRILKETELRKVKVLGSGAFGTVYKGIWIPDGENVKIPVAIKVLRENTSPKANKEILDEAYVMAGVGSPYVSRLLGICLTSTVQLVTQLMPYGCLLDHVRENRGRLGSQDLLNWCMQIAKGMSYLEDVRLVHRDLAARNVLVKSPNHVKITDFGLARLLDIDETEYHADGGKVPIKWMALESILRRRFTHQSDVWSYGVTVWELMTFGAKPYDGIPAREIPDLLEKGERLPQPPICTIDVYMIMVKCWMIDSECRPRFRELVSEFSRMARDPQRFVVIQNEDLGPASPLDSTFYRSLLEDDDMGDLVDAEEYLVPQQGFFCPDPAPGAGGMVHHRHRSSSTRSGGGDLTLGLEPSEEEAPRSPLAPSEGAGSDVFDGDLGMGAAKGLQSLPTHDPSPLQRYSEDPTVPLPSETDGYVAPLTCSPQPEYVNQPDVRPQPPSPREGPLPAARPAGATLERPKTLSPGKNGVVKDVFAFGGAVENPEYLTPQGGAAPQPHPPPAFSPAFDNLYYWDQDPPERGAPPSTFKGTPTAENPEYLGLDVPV
Chain of Mitogen-activated protein kinase kinase kinase kinase 5 (Homo sapiens) (Q9Y4K4 whole entry, looked up): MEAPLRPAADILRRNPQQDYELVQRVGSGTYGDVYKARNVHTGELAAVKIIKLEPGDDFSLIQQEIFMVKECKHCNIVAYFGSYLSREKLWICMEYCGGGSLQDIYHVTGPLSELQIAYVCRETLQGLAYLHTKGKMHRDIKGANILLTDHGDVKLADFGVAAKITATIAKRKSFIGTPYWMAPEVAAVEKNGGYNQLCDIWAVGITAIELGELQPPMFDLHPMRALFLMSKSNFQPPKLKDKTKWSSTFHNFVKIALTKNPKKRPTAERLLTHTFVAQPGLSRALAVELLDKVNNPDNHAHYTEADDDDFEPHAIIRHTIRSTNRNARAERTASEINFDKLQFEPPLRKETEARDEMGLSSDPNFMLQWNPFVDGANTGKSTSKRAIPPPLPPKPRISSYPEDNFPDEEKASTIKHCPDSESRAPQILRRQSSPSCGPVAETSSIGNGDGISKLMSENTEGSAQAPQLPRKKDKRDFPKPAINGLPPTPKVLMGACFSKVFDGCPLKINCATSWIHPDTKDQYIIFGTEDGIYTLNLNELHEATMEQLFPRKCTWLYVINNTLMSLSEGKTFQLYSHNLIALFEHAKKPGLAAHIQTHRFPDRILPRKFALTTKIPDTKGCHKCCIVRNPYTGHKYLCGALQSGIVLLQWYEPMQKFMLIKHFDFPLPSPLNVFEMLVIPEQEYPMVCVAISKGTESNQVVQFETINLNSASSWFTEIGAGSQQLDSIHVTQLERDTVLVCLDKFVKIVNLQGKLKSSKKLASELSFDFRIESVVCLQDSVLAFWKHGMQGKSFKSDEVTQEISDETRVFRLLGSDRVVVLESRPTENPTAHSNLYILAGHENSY
Chain of Cyclin-dependent kinase-like 1 (Homo sapiens) (Q00532 whole entry): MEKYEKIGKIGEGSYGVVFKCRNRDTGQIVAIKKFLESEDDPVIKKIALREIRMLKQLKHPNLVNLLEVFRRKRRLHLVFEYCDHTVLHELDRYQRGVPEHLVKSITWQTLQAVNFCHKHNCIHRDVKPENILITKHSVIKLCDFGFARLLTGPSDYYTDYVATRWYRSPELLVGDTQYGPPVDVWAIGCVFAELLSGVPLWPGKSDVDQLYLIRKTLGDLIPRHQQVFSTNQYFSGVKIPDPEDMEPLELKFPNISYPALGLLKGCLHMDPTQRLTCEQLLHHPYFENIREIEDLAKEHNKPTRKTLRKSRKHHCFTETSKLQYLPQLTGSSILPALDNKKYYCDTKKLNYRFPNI
Chain of Fibroblast growth factor receptor 3 (Homo sapiens) (P22607 23-806 limits assumed): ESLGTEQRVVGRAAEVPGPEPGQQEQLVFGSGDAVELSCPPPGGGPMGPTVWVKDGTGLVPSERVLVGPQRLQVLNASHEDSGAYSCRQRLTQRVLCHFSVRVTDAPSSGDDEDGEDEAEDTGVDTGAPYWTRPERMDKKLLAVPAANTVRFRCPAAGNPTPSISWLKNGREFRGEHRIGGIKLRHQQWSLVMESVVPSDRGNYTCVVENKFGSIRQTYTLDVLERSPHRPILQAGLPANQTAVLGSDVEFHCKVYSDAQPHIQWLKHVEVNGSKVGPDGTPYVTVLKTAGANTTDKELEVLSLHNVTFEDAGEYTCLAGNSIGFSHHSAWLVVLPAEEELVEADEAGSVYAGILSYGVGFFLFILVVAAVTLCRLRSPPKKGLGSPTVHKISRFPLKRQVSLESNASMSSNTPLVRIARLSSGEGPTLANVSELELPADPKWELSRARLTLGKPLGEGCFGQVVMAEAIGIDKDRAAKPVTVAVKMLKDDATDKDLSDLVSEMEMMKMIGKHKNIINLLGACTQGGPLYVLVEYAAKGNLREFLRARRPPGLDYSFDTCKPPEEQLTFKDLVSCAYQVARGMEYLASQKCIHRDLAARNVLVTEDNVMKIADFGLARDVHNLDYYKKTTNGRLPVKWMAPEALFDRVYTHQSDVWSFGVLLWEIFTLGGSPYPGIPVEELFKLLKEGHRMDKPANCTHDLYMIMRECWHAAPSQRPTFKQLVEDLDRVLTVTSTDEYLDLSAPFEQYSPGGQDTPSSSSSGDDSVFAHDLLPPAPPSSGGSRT
Chain of Serine/threonine-protein kinase Sgk2 (Homo sapiens) (Q9HBY8 whole entry): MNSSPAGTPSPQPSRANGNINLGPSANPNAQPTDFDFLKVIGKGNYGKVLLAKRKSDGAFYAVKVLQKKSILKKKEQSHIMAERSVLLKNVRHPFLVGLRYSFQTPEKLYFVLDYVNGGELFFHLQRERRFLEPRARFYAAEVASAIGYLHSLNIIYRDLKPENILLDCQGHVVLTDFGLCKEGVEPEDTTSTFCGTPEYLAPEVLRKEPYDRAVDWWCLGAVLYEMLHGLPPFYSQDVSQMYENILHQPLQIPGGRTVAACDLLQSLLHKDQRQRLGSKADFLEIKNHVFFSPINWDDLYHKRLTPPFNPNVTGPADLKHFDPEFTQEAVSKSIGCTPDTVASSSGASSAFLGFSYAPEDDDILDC
Chain of Vascular endothelial growth factor receptor 1 (Homo sapiens) (P17948 whole entry): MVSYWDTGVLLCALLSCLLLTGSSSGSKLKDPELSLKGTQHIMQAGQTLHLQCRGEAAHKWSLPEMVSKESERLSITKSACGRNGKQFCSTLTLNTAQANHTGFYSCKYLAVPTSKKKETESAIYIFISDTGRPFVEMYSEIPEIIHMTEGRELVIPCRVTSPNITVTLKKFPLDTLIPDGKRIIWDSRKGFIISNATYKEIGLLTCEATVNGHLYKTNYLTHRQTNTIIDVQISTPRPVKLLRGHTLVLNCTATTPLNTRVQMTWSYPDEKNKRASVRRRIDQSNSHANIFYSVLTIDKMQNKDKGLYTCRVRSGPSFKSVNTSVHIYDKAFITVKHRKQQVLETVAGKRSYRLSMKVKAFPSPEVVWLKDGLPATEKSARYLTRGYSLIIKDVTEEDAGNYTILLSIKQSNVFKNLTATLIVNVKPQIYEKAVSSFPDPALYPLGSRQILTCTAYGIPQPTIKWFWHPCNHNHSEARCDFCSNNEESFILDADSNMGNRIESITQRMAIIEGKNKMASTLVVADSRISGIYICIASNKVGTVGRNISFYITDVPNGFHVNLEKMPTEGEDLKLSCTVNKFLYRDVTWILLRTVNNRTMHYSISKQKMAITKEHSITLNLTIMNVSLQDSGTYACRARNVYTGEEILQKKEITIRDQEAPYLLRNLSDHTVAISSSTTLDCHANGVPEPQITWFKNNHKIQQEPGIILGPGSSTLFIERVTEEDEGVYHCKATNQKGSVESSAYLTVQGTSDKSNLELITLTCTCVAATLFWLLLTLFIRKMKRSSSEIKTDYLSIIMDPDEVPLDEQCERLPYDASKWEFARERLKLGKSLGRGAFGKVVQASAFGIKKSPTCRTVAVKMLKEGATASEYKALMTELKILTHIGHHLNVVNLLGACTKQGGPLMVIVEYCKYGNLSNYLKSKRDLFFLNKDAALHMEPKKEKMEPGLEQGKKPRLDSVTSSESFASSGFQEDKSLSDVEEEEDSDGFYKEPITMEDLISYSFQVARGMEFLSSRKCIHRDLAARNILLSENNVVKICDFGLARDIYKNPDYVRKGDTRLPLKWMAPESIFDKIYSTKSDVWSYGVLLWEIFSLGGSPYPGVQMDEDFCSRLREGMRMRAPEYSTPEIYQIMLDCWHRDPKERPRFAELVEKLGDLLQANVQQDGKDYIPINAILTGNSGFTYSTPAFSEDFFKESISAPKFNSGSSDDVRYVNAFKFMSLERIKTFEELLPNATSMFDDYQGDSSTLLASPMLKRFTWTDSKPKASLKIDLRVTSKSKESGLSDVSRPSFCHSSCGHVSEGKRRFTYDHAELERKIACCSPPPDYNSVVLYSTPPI

Question: `CN(C)CC#Cc1ccc(OCCCc2sc(N3CCc4cccc(C(=O)Nc5nc6ccccc6s5)c4C3)nc2C(=O)O)c(F)c1` [A-1155463] was tested. Which residual activity [1] did it give?
Answer: Its residual activity is 62%.

Question: What about the residual activity [2] of the same molecule?
Answer: Its residual activity is 100%.

Question: What about the residual activity [3] of the same molecule?
Answer: The residual activity was 100%.

Question: And the residual activity [4]?
Answer: Its residual activity is 100%.

Question: And the inhibition [5]?
Answer: Its inhibition is -4.32%.

Question: And the inhibition [6]?
Answer: Its inhibition is 34.7%.

Question: What about the residual activity [7] of the same molecule?
Answer: The residual activity was 100%.

Question: And the residual activity [8]?
Answer: Its residual activity is 91%.

Question: And the residual activity [9]?
Answer: Its residual activity is 91%.

Question: And the inhibition [10]?
Answer: The inhibition was 2.01%.

Question: And the residual activity [11]?
Answer: Its residual activity is 100%.

Question: What about the residual activity [12] of the same molecule?
Answer: Its residual activity is 89%.

Question: What about the residual activity [13] of the same molecule?
Answer: Its residual activity is 98%.

Question: And the residual activity [14]?
Answer: Its residual activity is 100%.

Question: And the residual activity [15]?
Answer: The residual activity was 72%.

Question: What about the residual activity [16] of the same molecule?
Answer: The residual activity was 100%.

Question: What about the residual activity [17] of the same molecule?
Answer: The residual activity was 96%.

Question: What about the residual activity [18] of the same molecule?
Answer: The residual activity was 100%.

Question: And the residual activity [19]?
Answer: The residual activity was 100%.

Question: And the residual activity [20]?
Answer: The residual activity was 97%.

Question: And the Ki (Histamine H3 receptor)?
Answer: The Ki was 1810 nM.

Question: And the residual activity [21]?
Answer: The residual activity was 100%.

Question: What about the residual activity [22] of the same molecule?
Answer: The residual activity was 71%.

Question: And the residual activity [23]?
Answer: Its residual activity is 79%.

Question: What about the residual activity [24] of the same molecule?
Answer: The residual activity was 92%.

Question: And the residual activity [25]?
Answer: The residual activity was 100%.

Question: And the residual activity [26]?
Answer: Its residual activity is 97%.

Question: And the residual activity [27]?
Answer: The residual activity was 100%.

Question: What about the residual activity [28] of the same molecule?
Answer: The residual activity was 100%.

Question: And the inhibition [29]?
Answer: The inhibition was 7.32%.

Question: What about the residual activity [30] of the same molecule?
Answer: The residual activity was 90%.

Question: What about the residual activity [31] of the same molecule?
Answer: The residual activity was 100%.

Question: And the residual activity [32]?
Answer: The residual activity was 100%.
